Converted amounts (≈) assume the structure as drawn. Like-named read-outs stand apart in the source and are kept apart here.
Columns and labels:
Assay in all cases: Broth microdilution MIC, European bacteraemia isolates 2010-2012
E. faecium = assay type: cell-based, Enterococcus faecium
Description: (§1) A total of 2,904 clinical strains responsible for documented bacteremia among unique hospitalized patients in 38 hospitals in 11 European Union countries. Israel, Russia, Turkey and Ukraine were included in this study (2010-2012). Isolates were submitted to a central monitoring laboratory (JMI Laboratories, North Liberty. Iowa. USA), following previously established protocols. Bacterial species identification was performed by using an automated system (Vitek®2; bioMèrieux, Hazelwood, Mo., USA) or conventional biochemical algorithms, as required.
(§2) Isolates were tested for susceptibility by broth microdilution methods following the Clinical and Laboratory Standards Institute (CLSI; M07-A9, 2012) document. Susceptibility testing was performed in cation-adjusted Mueller-Hinton broth (CA-MHB) using dry-form panels manufactured by Thermo Fisher Scientific, formerly TREK Diagnostics Systems/Sensititre (Cleveland. Ohio, USA). These panels provide results equivalent to the CLSI-approved broth microdilution method supplemented with 0.002% polysorbate-80.
(§3) Quality assurance was performed by concurrent testing of CLSI-recommended (M100-S23, 2013) strains: E. faecalis ATCC 29212 and S. aureus ATCC 29213. Interpretation of comparator MIC results was in accordance with published CLSI (M100-S23) and European Committee on Antimicrobial Susceptibility Testing (EUCAST, 2013) criteria.

[1] = tested on: staphylococcal clinical isolates; assay type: cell-based, staphylococci
Description: as §1, §2, §3

[2] = tested on: Coagulase-negative staphylococci; assay type: cell-based, coagulase-negative staphylococci (CoNS)
Description: as §1, §2, §3

[3] = E. faecium (315), at ≦0.008 mg/L
[4] = E. faecium, VanA-phenotype (53), at ≦0.008 mg/L
[5] = E. faecium, Vancomycin-susceptible (257), at ≦0.008 mg/L
[6] = Enterococcus faecium, Table 1, E. faecium (315)
[7] = Enterococcus faecium, Table 1, E. faecium, VanA-phenotype (53)
[8] = Enterococcus faecium, Table 1, E. faecium, Vancomycin-susceptible (257)
[9] = Enterococcus faecium, Table 2, E. faecium Vancomycin-resistant (VanA-phenotype) (153)
[10] = Enterococcus faecium, Table 2, E. faecium Vancomycin-susceptible (257)
[11] = collection of staphylococcal clinical isolates, regardless of the methicillin susceptibility pattern

With `CN[C@H](CC(C)C)C(=O)N[C@H]1C(=O)N[C@@H](CC(N)=O)C(=O)N[C@H]2C(=O)N[C@H]3C(=O)N[C@H](C(=O)N[C@H](C(=O)O)c4cc(O)cc(O)c4-c4cc3ccc4O)[C@H](O[C@H]3C[C@](C)(N)[C@@H](O)[C@H](C)O3)c3ccc(c(Cl)c3)Oc3cc2cc(c3O[C@@H]2O[C@H](CO)[C@@H](O)[C@H](O)[C@H]2O[C@H]2C[C@](C)(NCc3ccc(-c4ccc(Cl)cc4)cc3)[C@@H](O)[C@H](C)O2)Oc2ccc(cc2Cl)[C@H]1O` [Oritavancin, N-(4-(4-chlorophenyl)benzyl)A82846B] the “Number inhibited at MIC” value (E. faecium; E. faecium (315), at 0.015 mg/L) was 25, the “Number inhibited at MIC” value (E. faecium; E. faecium (315), at 0.03 mg/L) was 12 and the “Number inhibited at MIC” value (E. faecium; E. faecium (315), at 0.06 mg/L) was 6. For the same molecule, the “Number inhibited at MIC” value (E. faecium; E. faecium (315), at 0.12 mg/L) was 3, the “Number inhibited at MIC” value (E. faecium; [3]) was 269 and the “cumulative % inhibited at MIC” value (E. faecium; [3]) was 85.4%. The “Number inhibited at MIC” value (E. faecium; E. faecium, VanA-phenotype (53), at 0.015 mg/L) was 19, the “Number inhibited at MIC” value (E. faecium; E. faecium, VanA-phenotype (53), at 0.03 mg/L) was 12 and the “Number inhibited at MIC” value (E. faecium; E. faecium, VanA-phenotype (53), at 0.06 mg/L) was 6. For the same molecule, the “Number inhibited at MIC” value (E. faecium; E. faecium, VanA-phenotype (53), at 0.12 mg/L) was 3, the “Number inhibited at MIC” value (E. faecium; [4]) was 13 and the “cumulative % inhibited at MIC” value (E. faecium; [4]) was 24.5%. For the same molecule, the “Number inhibited at MIC” value (E. faecium; E. faecium, Vancomycin-susceptible (257), at 0.015 mg/L) was 6, the “Number inhibited at MIC” value (E. faecium; [5]) was 251 and the “cumulative % inhibited at MIC” value (E. faecium; [5]) was 97.7%. It also gave an MIC50 (E. faecium; [6]) of no more than 0.008 µg/mL, an MIC90 (E. faecium; [6]) of 0.015 µg/mL (≈ 8.37 nM) and an MIC50 (E. faecium; [7]) of 0.015 µg/mL (≈ 8.37 nM). It also gave an MIC90 (E. faecium; [7]) of 0.06 µg/mL (≈ 33.5 nM), an MIC50 (E. faecium; [8]) of no more than 0.008 µg/mL and an MIC90 (E. faecium; [8]) of no more than 0.008 µg/mL. The MIC50 (E. faecium; [9]) was 0.015 µg/mL (≈ 8.37 nM), the MIC90 (E. faecium; [9]) was 0.06 µg/mL (≈ 33.5 nM) and the MIC50 (E. faecium; [10]) was no more than 0.0081 µg/mL. The MIC90 (E. faecium; [10]) was no more than 0.008 µg/mL, the MIC (E. faecium; Enterococcus faecium, read-out: MIC values) was no more than 0.008 µg/mL and the inhibition at 0.015 µg/mL (E. faecium; Enterococcus faecium, read-out: cumulative % inhibited at MIC, E. faecium (315), at 0.015 mg/L) was 93.3%. The inhibition at 0.03 µg/mL (E. faecium; Enterococcus faecium, read-out: cumulative % inhibited at MIC, E. faecium (315), at 0.03 mg/L) was 97.1%, the inhibition at 0.06 µg/mL (E. faecium; Enterococcus faecium, read-out: cumulative % inhibited at MIC, E. faecium (315), at 0.06 mg/L) was 99.1% and the inhibition at 0.12 µg/mL (E. faecium; Enterococcus faecium, read-out: cumulative % inhibited at MIC, E. faecium (315), at 0.12 mg/L) was 100%. It also gave an inhibition at 0.015 µg/mL (E. faecium; Enterococcus faecium, read-out: cumulative % inhibited at MIC, E. faecium, VanA-phenotype (53), at 0.015 mg/L) of 60.4%, an inhibition at 0.03 µg/mL (E. faecium; Enterococcus faecium, read-out: cumulative % inhibited at MIC, E. faecium, VanA-phenotype (53), at 0.03 mg/L) of 83% and an inhibition at 0.06 µg/mL (E. faecium; Enterococcus faecium, read-out: cumulative % inhibited at MIC, E. faecium, VanA-phenotype (53), at 0.06 mg/L) of 94.3%. For the same molecule, the inhibition at 0.12 µg/mL (E. faecium; Enterococcus faecium, read-out: cumulative % inhibited at MIC, E. faecium, VanA-phenotype (53), at 0.12 mg/L) was 100%, the inhibition at 0.015 µg/mL (E. faecium; Enterococcus faecium, read-out: cumulative % inhibited at MIC, E. faecium, Vancomycin-susceptible (257), at 0.015 mg/L) was 100% and the “MIC Range” value (E. faecium; Table 2, E. faecium Vancomycin-resistant (VanA-phenotype) (153)) was “≦0.008-0.12 mg/L”. The “MIC Range” value (E. faecium; Table 2, E. faecium Vancomycin-susceptible (257)) was “≦0.008-0.015 mg/L”, the “MIC50 and MIC90 lower than daptomycin and linezolid” value (E. faecium; VanA-phenotype E. faecium) was 32- to 64 fold and the “concentration inhibiting all strains” value (E. faecium; VanA-phenotype E. faecium strains) was no more than 0.12 mg/L. The “concentration inhibiting all strains” value (E. faecium; all E. faecium, including resistant subsets) was no more than 0.12 mg/L, the “activity relative to wild-type vancomycin-susceptible population” value (E. faecium; vancomycin-resistant (VanA-type) E. faecium strains) was “at least two-fold less active” and the “concentration inhibiting all strains” value ([1]; all staphylococci, including resistant subsets) was no more than 0.25 mg/L. The MIC50 [1, 11] was 0.03 µg/mL (≈ 16.7 nM), the MICE [1, 11] was 0.06 mg/L and the “effect of methicillin-resistance phenotype on in vitro activity” value ([1]; staphylococci) was “not affected”. The MIC50 [2] was 0.03 µg/mL (≈ 16.7 nM), the MIC90 [2] was 0.06 µg/mL (≈ 33.5 nM) and the “MIC50 and MIC90 lower than linezolid” value ([2]; CoNS isolates) was 16 fold. For the same molecule, the “MIC values lower than vancomycin” value ([2]; CoNS isolates) was 32- to 64 fold and the “MIC results relative to strains with teicoplanin MIC≦4 mg/L” value ([2]; CoNS with decreased susceptibility to teicoplanin (MIC≧8 mg/L)) was “two-fold higher”.

— US20160206688A1, “METHODS FOR TREATING BACTEREMIA AND OSTEOMYELITIS USING ORITAVANCIN” (THE MEDICINES COMPANY, priority 2013, published 2016)
